From patent US20190322676A1, “CERAMIDE GALACTOSYLTRANSFERASE INHIBITORS FOR THE TREATMENT OF DISEASE” (BioMarin Pharmaceutical Inc., priority 2016, published 2019)
Counter-ions that a name gives are not always drawn.

Assays:
[1] = molecular target: T1, human CGT (ceramide galactosyltransferase), CHO/CGT lysate (Homo sapiens, UniProt Q16880); assay: CGT enzyme assay, LC-MS/MS readout (Table 1 ranges without asterisk); assay type: biochemical; conditions: LC-MS/MS method (range without asterisk)
T1 construct: Full-length human CGT cDNA was cloned into the BamH1/Xho1 site of pcDNA3.1 (+); expressed in transfected cells; host or cells: Chinese hamster ovary (CHO) cells; lysate prepared with M-PER
T1 sequence (Q16880 21-541): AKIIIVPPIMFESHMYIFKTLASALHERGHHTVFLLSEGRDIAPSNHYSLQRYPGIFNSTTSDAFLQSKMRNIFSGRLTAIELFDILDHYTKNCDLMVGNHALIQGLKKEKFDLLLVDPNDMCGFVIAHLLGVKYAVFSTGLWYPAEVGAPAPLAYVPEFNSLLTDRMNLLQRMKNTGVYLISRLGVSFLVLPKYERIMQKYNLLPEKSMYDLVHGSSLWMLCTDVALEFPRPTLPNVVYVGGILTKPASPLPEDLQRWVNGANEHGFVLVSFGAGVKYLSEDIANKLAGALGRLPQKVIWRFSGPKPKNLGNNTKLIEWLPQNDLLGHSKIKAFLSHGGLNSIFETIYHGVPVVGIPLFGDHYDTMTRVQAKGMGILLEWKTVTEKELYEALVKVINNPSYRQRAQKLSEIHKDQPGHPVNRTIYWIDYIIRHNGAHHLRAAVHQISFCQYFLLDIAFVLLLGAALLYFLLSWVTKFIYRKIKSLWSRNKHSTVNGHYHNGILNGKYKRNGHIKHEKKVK
Procedure, shortened: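 Lysate of CHO cells transfected with full-length human CGT incubated 1 h at 37 °C with compound (0.001–50 μM) in HEPES pH 7.2 with 17.5 μM UDP-galactose and C12:0 (2R-OH) ceramide substrate, 0.5% DMSO, no Tween 80. Galactosylceramide product quantified by LC-MS/MS against C12 ceramide internal standard; IC50 calculated.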

[2] = molecular target: T1, human CGT (ceramide galactosyltransferase), CHO/CGT lysate; assay: CGT enzyme assay, RapidFire/MS/MS readout (Table 1 ranges with one asterisk *); assay type: biochemical; conditions: RapidFire method (range with one asterisk *)
Procedure, shortened: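 Lysate (4 μg) of CHO cells transfected with full-length human CGT incubated 1 h at 37 °C with compound (0.001–50 μM) in pH 7.2 HEPES buffer with 10 μM C6-NBD-dihydro-ceramide, 17.5 μM UDP-galactose, Mg2+/Mn2+, CHAPS, BSA, 0.5% DMSO; ** set also contained 0.01% Tween 80. Product quantified by RapidFire/MS/MS, normalized to internal standard; IC50 from sigmoidal variable-slope fits.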

SMILES | IC50 [1] [µM] | IC50 [2] [µM]
CC(C)Oc1ccc2cc(S(=O)(=O)N[C@H](C(=O)N3C4CCC3CC(N)C4)C(F)(F)c3ccc(Br)cc3)ccc2c1 (stereo partly drawn) [Compound 1-1, N-((2R)-3-(3-amino-8-azabicyclo[3.2.1]octan-8-yl)-1-(4-bromophenyl)-1,1-difluoro-3-oxopropan-2-yl)-6-isopropoxynaphthalene-2-sulfonamide] | 1 to 10 | 1 to 10
CC(C)Oc1ccc2cc(S(=O)(=O)N[C@H](C(=O)N3C4CCC3CC(N)C4)C(F)(F)c3ccc(Cl)cc3)ccc2c1 (stereo partly drawn) [Compound 8-1, N-((2R)-3-(3-amino-8-azabicyclo[3.2.1]octan-8-yl)-1-(4-chlorophenyl)-1,1-difluoro-3-oxopropan-2-yl)-6-isopropoxynaphthalene-2-sulfonamide trifluoroacetate] | 1 to 10 | 1 to 10
CC(C)Oc1ccc2cc([C@@H](O)C(=O)N[C@@H](C(=O)N3C4CCC3CC(N)C4)C(F)(F)c3ccc(Br)cc3)ccc2c1 (stereo partly drawn) [Compound 19-4, (2R)—N-((2S)-3-(3-amino-8-azabicyclo[3.2.1]octan-8-yl)-1-(4-bromophenyl)-1,1-difluoro-3-oxopropan-2-yl)-2-hydroxy-2-(6-isopropoxynaphthalen-2-yl)acetamide trifluoroacetate] | 30 to 100 | 30 to 100
NC1CC2CCC(C1)N2C(=O)[C@@H](NS(=O)(=O)c1ccc(OCC2CCCC2)cc1)C(F)(F)c1ccc(Br)cc1 (stereo partly drawn) [Compound 20-1, N-((2R)-3-(3-amino-8-azabicyclo[3.2.1]octan-8-yl)-1-(4-bromophenyl)-1,1-difluoro-3-oxopropan-2-yl)-4-(cyclopentylmethoxy)benzenesulfonamide trifluoroacetate] | 1 to 10 | 
NC1CC2CCC(C1)N2C(=O)[C@H](NS(=O)(=O)c1ccc(OCC2CCCC2)cc1)C(F)(F)c1ccc(Br)cc1 (stereo partly drawn) [Compound 20-2, N-((2S)-3-(3-amino-8-azabicyclo[3.2.1]octan-8-yl)-1-(4-bromophenyl)-1,1-difluoro-3-oxopropan-2-yl)-4-(cyclopentylmethoxy) benzenesulfonamide trifluoroacetate] | 10 to 30 | 
CC(C)Oc1ccc2cc(S(=O)(=O)N[C@H](C(=O)N3C4CCC3CC(N(C)C)C4)C(F)(F)c3ccc(Br)cc3)ccc2c1 (stereo partly drawn) [Compound 21-1, N-((2R)-1-(4-bromophenyl)-3-(3-(dimethylamino)-8-azabicyclo[3.2.1]octan-8-yl)-1,1-difluoro-3-oxopropan-2-yl)-6-isopropoxynaphthalene-2-sulfonamide] | 10 to 30 | 
CC(C)Oc1ccc2cc(S(=O)(=O)N[C@@H](C(=O)N3C4CCC3CC(N(C)C)C4)C(F)(F)c3ccc(Br)cc3)ccc2c1 (stereo partly drawn) [Compound 21-2, N-((2S)-1-(4-bromophenyl)-3-(3-(dimethylamino)-8-azabicyclo[3.2.1]octan-8-yl)-1,1-difluoro-3-oxopropan-2-yl)-6-isopropoxy naphthalene-2-sulfonamide] | 30 to 100 | 
CCCCOc1ccc(S(=O)(=O)N[C@H](C(=O)N2C3CCC2CC(N)C3)C(F)(F)c2ccc(Br)cc2)cc1 (stereo partly drawn) [Compound 22-1, N-((2R)-3-(3-amino-8-azabicyclo[3.2.1]octan-8-yl)-1-(4-bromophenyl)-1,1-difluoro-3-oxopropan-2-yl)-4-butoxybenzenesulfonamide] | 1 to 10 | 
CCCCOc1ccc(S(=O)(=O)N[C@@H](C(=O)N2C3CCC2CC(N)C3)C(F)(F)c2ccc(Br)cc2)cc1 (stereo partly drawn) [Compound 22-2, N-((2S)-3-(3-amino-8-azabicyclo[3.2.1]octan-8-yl)-1-(4-bromophenyl)-1,1-difluoro-3-oxopropan-2-yl)-4-butoxybenzenesulfonamide] | 30 to 100 | 
CCCCCCOc1ccc(S(=O)(=O)N[C@H](C(=O)N2C3CCC2CC(N)C3)C(F)(F)c2ccc(Br)cc2)cc1 (stereo partly drawn) [Compound 23-1, N-((2R)-3-(3-amino-8-azabicyclo[3.2.1]octan-8-yl)-1-(4-bromophenyl)-1,1-difluoro-3-oxopropan-2-yl)-4-(hexyloxy)benzenesulfonamide] | 1 to 10 | 
CCCCCCOc1ccc(S(=O)(=O)N[C@@H](C(=O)N2C3CCC2CC(N)C3)C(F)(F)c2ccc(Br)cc2)cc1 (stereo partly drawn) [Compound 23-2, N-((2S)-3-(3-amino-8-azabicyclo[3.2.1]octan-8-yl)-1-(4-bromophenyl)-1,1-difluoro-3-oxopropan-2-yl)-4-(hexyloxy)benzenesulfonamide] | 30 to 100 | 
NC1CC2CCC(C1)N2C(=O)[C@@H](NS(=O)(=O)c1ccc2cc(OCc3ccccc3)ccc2c1)C(F)(F)c1ccc(Br)cc1 (stereo partly drawn) [Compound 24-1, N-((2R)-3-(3-amino-8-azabicyclo[3.2.1]octan-8-yl)-1-(4-bromophenyl)-1,1-difluoro-3-oxopropan-2-yl)-6-(benzyloxy)naphthalene-2-sulfonamide] | 1 to 10 | 
NC1CC2CCC(C1)N2C(=O)[C@H](NS(=O)(=O)c1ccc2cc(OCc3ccccc3)ccc2c1)C(F)(F)c1ccc(Br)cc1 (stereo partly drawn) [Compound 24-2, N-((2S)-3-(3-amino-8-azabicyclo[3.2.1]octan-8-yl)-1-(4-bromophenyl)-1,1-difluoro-3-oxopropan-2-yl)-6-(benzyloxy)naphthalene-2-sulfonamide] | 30 to 100 | 
NC1CC2CCC(C1)N2C(=O)[C@@H](NS(=O)(=O)c1ccc(Oc2ccc(F)cc2)cc1)C(F)(F)c1ccc(Br)cc1 (stereo partly drawn) [Compound 25-1, N-((2R)-3-(3-amino-8-azabicyclo[3.2.1]octan-8-yl)-1-(4-bromophenyl)-1,1-difluoro-3-oxopropan-2-yl)-4-(4-fluorophenoxy)benzenesulfonamide trifluoroacetate] | 1 to 10 | 
NC1CC2CCC(C1)N2C(=O)[C@H](NS(=O)(=O)c1ccc(Oc2ccc(F)cc2)cc1)C(F)(F)c1ccc(Br)cc1 (stereo partly drawn) [Compound 25-2, N-((2S)-3-(3-amino-8-azabicyclo[3.2.1]octan-8-yl)-1-(4-bromophenyl)-1,1-difluoro-3-oxopropan-2-yl)-4-(4-fluorophenoxy) benzenesulfonamide trifluoroacetate] | 30 to 100 | 
NC1CC2CCC(C1)N2C(=O)[C@@H](NS(=O)(=O)c1ccc(OCCC2CCCCC2)cc1)C(F)(F)c1ccc(Br)cc1 (stereo partly drawn) [Compound 26-1, N-((2R)-3-(3-amino-8-azabicyclo[3.2.1]octan-8-yl)-1-(4-bromophenyl)-1,1-difluoro-3-oxopropan-2-yl)-4-(2-cyclohexylethoxy)benzenesulfonamide trifluoroacetate] | 1 to 10 | 
NC1CC2CCC(C1)N2C(=O)[C@H](NS(=O)(=O)c1ccc(OCCC2CCCCC2)cc1)C(F)(F)c1ccc(Br)cc1 (stereo partly drawn) [Compound 26-2, N-((2S)-3-(3-amino-8-azabicyclo[3.2.1]octan-8-yl)-1-(4-bromophenyl)-1,1-difluoro-3-oxopropan-2-yl)-4-(2-cyclohexylethoxy)benzenesulfonamide trifluoroacetate] | 30 to 100 | 
CC(C)Oc1ccc2cc(S(=O)(=O)N[C@H](C(=O)N3CCC(N)CC3)C(F)(F)c3ccc(Br)cc3)ccc2c1 [Compound 27-1, (R)—N-(3-(4-aminopiperidin-1-yl)-1-(4-bromophenyl)-1,1-difluoro-3-oxopropan-2-yl)-6-isopropoxynaphthalene-2-sulfonamide trifluoroacetate] | 1 to 10 | 
CC(C)Oc1ccc2cc(S(=O)(=O)N[C@@H](C(=O)N3CCC(N)CC3)C(F)(F)c3ccc(Br)cc3)ccc2c1 [Compound 27-2, (S)—N-(3-(4-aminopiperidin-1-yl)-1-(4-bromophenyl)-1,1-difluoro-3-oxopropan-2-yl)-6-isopropoxynaphthalene-2-sulfonamide trifluoroacetate] | 10 to 30 | 
CC(C)Oc1ccc2cc(S(=O)(=O)N[C@H](C(=O)N3CCC(N)CC3)C(F)(F)c3ccc(Br)cc3)ccc2c1Br [Compound 119-1, (R)—N-(3-(4-aminopiperidin-1-yl)-1-(4-bromophenyl)-1,1-difluoro-3-oxopropan-2-yl)-5-bromo-6-isopropoxynaphthalene-2-sulfonamide] | 1 to 10 | 
CC(C)Oc1ccc2cc(S(=O)(=O)N[C@@H](C(=O)N3CCC(N)CC3)C(F)(F)c3ccc(Br)cc3)ccc2c1Br [Compound 119-2, (S)—N-(3-(4-aminopiperidin-1-yl)-1-(4-bromophenyl)-1,1-difluoro-3-oxopropan-2-yl)-5-bromo-6-isopropoxynaphthalene-2-sulfonamide] | 10 to 30 | 
NC1CC2CCC(C1)N2C(=O)C(NS(=O)(=O)c1ccc(-c2ccc(F)cc2)nc1)C(F)(F)c1ccc(Br)cc1 (stereo not shown) [Compound 199, N-(3-(3-amino-8-azabicyclo[3.2.1]octan-8-yl)-1-(4-bromophenyl)-1,1-difluoro-3-oxopropan-2-yl)-6-(4-fluorophenyl)pyridine-3-sulfonamide] | 30 to 100 | 
